The experiment addresses T1, human recombinant SIRT1 (Homo sapiens, UniProt Q96EB6).
T1 construct: purchased Cayman Chemical
T1 sequence (Q96EB6 1-747): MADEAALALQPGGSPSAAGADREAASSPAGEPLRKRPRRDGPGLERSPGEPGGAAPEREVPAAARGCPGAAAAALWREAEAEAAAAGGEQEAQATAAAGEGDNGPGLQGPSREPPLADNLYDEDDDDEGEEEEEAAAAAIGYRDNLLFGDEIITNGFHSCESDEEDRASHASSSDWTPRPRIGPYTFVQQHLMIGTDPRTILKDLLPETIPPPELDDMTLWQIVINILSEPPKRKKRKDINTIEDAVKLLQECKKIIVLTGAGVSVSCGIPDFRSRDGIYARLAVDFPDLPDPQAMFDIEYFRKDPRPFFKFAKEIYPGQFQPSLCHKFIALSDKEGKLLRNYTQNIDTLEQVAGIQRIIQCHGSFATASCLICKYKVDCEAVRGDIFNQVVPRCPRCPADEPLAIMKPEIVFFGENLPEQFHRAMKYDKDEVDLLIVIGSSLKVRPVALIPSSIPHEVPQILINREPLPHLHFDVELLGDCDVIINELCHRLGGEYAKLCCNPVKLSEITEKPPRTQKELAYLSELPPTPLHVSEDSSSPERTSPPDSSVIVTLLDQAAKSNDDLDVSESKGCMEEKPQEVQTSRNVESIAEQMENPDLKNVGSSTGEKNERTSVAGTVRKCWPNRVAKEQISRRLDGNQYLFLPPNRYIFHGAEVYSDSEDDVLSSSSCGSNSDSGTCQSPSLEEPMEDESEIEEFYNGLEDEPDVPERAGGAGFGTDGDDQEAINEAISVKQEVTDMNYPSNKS
As to the kind of experiment: SIRT1 Direct Fluorescent Screening Assay (Cayman Chemical), SIRT1 activation. The experiment is classed as biochemical. The following applies: positive control, working concentration 1 mM, final assay concentration 32.5 μg/ml. On the procedure: The assay was performed using SIRT1 Direct Fluorescent Screening Assay kit, (Cayman Chemical). In the assay resveratrol was used as a positive comparative control in the working concentration of 1 mM, or 228 μg/ml corresponding to a final assay concentration of 32.5 μg/ml.
Cayman's SIRT1 Direct Fluorescent Screening Assay Kit is fluorescence-based method for screening SIRT1 inhibitors or activators. In the first step, the substrate is incubated with human recombinant SIRT1 along with its co-substrate NAD+. Deacetylation sensitizes the substrate such that treatment with the developer in the second step releases a fluorescent product. The fluorophore is analyzed using an excitation wavelength of 350-360 nm and an emission wavelength of 450-465 nm.
The activation is calculated as % activation=(Sample−Initial Activity)/Initial Activity*100.

Results on one compound are retold here after US10596212B2, “Mangifera indica as a Sirtuin 1 activating agent” (Vital Solutions Swiss AG, priority 2014, dated 2020).

The structures appear in SMILES notation.

In the case of `Oc1ccc(C=Cc2cc(O)cc(O)c2)cc1` [resveratrol], the “activation of SIRT1” value was 37.5%.
